Measurements reported in patent US10905738B2, “Synthetic peptides, prodrugs, pharmaceutical compositions and uses” (Biozeus Desenvolvimento De Produtos Biofarmacêuticos, priority 2018, dated 2021).
Where a SMILES comes first, the peptide text is derived from it.

Test system: smooth muscle of pulmonary arteries
Assay: relaxation of pulmonary arteries contracted with phenylephrine ex vivo
Parameters: species or system male Wistar rats
Settings: n = 9; for pEC50: pulmonary arteries contracted with phenylephrine, peptides 1 nM-10 μM, mean±SEM; for Effectiveness (Emax) (%): relaxation percentage related to maximum phenylephrine contraction
Source text: The ex vivo model of pulmonary artery smooth muscle contraction with phenylephrine is very useful to screen candidate compounds for lung diseases that demand vasodilating effects (ALENCAR, A. K., PEREIRA, S. L., MONTAGNOLI, T. L., MAIA, R. C., KUMMERLE, A. E., LANDGRAF, S. S., CARUSO-NEVES, C., FERRAZ, E. B., TESCH, R., NASCIMENTO, J. H., DE SANT'ANNA, C. M., FRAGA, C. A., BARREIRO, E. J., SUDO, R. T., ZAPATA-SUDO, G. Beneficial effects of a novel agonist of the adenosine A2A receptor on monocrotaline-induced pulmonary hypertension in rats. Br J Pharmacol, 169: 953-62. 2013).
Rats were anesthetized with midazolam and ketamine (2 mg/kg and 100 mg/kg, respectively) via intraperitoneal administration. After infusion of a lethal dose of sodium thiopental via intraperitoneal administration (50 mg/kg), the trunk of the pulmonary artery was carefully removed via sternotomy. The pulmonary artery was carefully dissected and the connective tissue removed. The arteries were connected to a force transductor, positioned in vertical chambers filled with Krebs solution, oxygenated and kept at 37° C.
After a stabilization period of 2 hours at a tension of 1.5 grams, the arteries were exposed to increasing doses of phenylephrine (1 nM-10 μM) in order to obtain maximum smooth muscle contraction and then exposed to increasing doses of selected peptides in the concentrations of 1 nM-10 μM each (n=9). The tension generated by the pulmonary artery was evaluated at intervals of 5 minutes for each dose (ALENCAR, A. K., PEREIRA, S. L., MONTAGNOLI, T. L., MAIA, R. C., KUMMERLE, A. E., LANDGRAF, S. S., CARUSO-NEVES, C., FERRAZ, E. B., TESCH, R., NASCIMENTO, J. H., DE SANT'ANNA, C. M., FRAGA, C. A., BARREIRO, E. J., SUDO, R. T., ZAPATA-SUDO, G. Beneficial effects of a novel agonist of the adenosine A2A receptor on monocrotaline-induced pulmonary hypertension in rats. Br J Pharmacol 169: 953-62. 2013; ALENCAR, A. K., PEREIRA, S. L., DA SILVA, F. E., MENDES, L. V., CUNHA VDO, M., LIMA, L. M., MONTAGNOLI, T. L., CARUSO-NEVES, C., FERRAZ, E. B., TESCH, R., NASCIMENTO, J. H., SANT'ANNA, C. M., FRAGA, C. A., BARREIRO, E. J., SUDO, R. T., ZAPATA-SUDO, G. N-acylhydrazone derivative ameliorates monocrotaline-induced pulmonary hypertension through the modulation of adenosine AA2R activity. International Journal of Cardiology, 173(2): 154-62. 2014).
Potency values are shown as the negative logarithm of the concentration that reduced the voltage to 50% of the maximum phenylephrine-induced contraction (pEC50), and they are expressed as mean±SEM. The maximum contraction achieved in a given artery was considered to be 100% of contraction, and the effectiveness (Emax) was expressed as the relaxation percentage related to this maximum value. The results were calculated from at least 3 independent tests using the sigmoid non-linear regression equation, and the statistical analysis of the concentration curve was done by performing a nonlinear fit of the logarithmic of the agonist versus response. All the above calculations were performed on the software Graph Prism 5.0 (GraphPad Software, La Jolla, Calif., USA). Tension analysis was performed on the software LabChart7 (AD Instruments, Sydney, Australia). As a cutoff to determine biological significance, we considered pulmonary artery relaxation values above 30% as biologically relevant, considered those as active and then calculated the Emax values (SUN, C. K., LIN, Y. C., YUEN, C. M., CHUA, S., CHANG, L. T., SHEU, J. J., LEE, F. Y., FU, M., LEU, S., YIP, H. K. Enhanced protection against pulmonary hypertension with sildenafil and endothelial progenitor cell in rats. International journal of cardiology, 162(1): 45-58. 2012; ALENCAR, A. K., PEREIRA, S. L., DA SILVA, F. E., MENDES, L. V., CUNHA VDO, M., LIMA, L. M., MONTAGNOLI, T. L., CARUSO-NEVES, C., FERRAZ, E. B., TESCH, R., NASCIMENTO, J. H., SANT'ANNA, C. M., FRAGA, C. […]

Row | SMILES | pEC50 | Effectiveness (Emax) (%)
1 | CC[C@H](C)[C@H](NC(C)=O)C(=O)N[C@@H](C)C(=O)N[C@@H](Cc1c[nH]c2ccccc12)C(=O)N[C@@H](Cc1ccc(O)cc1)C(=O)N[C@@H](CCCCN)C(N)=O [SEQ ID NO: 24, Ac-Ile-Ala-Trp-Tyr-Lys-NH2] (Ac-IAWYK-NH2) | 4.4 ± 6.4 | 5% ± 5.96
2 | CC[C@H](C)[C@H](NC(=O)[C@H](Cc1c[nH]c2ccccc12)NC(=O)[C@H](Cc1ccccc1)NC(C)=O)C(=O)N[C@@H](C)C(=O)N[C@@H](Cc1c[nH]c2ccccc12)C(=O)N[C@@H](Cc1ccc(O)cc1)C(=O)N[C@@H](CCCCN)C(=O)N[C@@H](CC(C)C)C(=O)N[C@@H](C)C(N)=O [SEQ ID NO: 19, Ac-Phe-Trp-Ile-Ala-Trp-Tyr-Lys-Leu-Ala-NH2] (Ac-FWIAWYKLA-NH2) | 6.9 ± 6.55 | 24% ± 9.71
